Assay results published in patent publication US20070071727A1, “Melanocytes in therapy of neurodegenerative diseases” (priority 2003, published 2007).

Experiments:
[1] = test system: Parkinson's melanocytes and normal adult control melanocytes; assay: short time exposure (24 h), DNA synthesis by 3HdT incorporation and scintillation counts; assay type: cell-based, human; details: 24 h exposure; 0.5 μg/ml to 5.0 μg/ml
control melanocytes = assay type: cell-based, human; details: 10 days exposure; only at the highest concentration step 5.0 μg/ml

| Structure (SMILES) | difference in vulnerability between Parkinson's melanocytes and normal adult control melanocytes (DNA synthesis, 3HdT incorporation) [1] | impact on the growth of the control melanocytes (control melanocytes) |
| --- | --- | --- |
| CCCCC[C@H](O)/C=C/[C@H]1C(=O)C=C[C@@H]1C/C=C\CCCC(=O)O [PGJ2] | no significant different in vulnerability | negative impact on the growth |
| CCCCC[C@H](O)/C=C/[C@H]1[C@H](O)CC(=O)[C@@H]1C/C=C\CCCC(=O)O [PGE2] | no significant different in vulnerability | – |
| CCCCC[C@H](O)/C=C/[C@@H]1[C@@H](C/C=C\CCCC(=O)O)[C@@H](O)C[C@H]1O [PGF2a] | no significant different in vulnerability | – |
| CCCCC[C@H](O)/C=C/[C@H]1C=CC(=O)[C@@H]1C/C=C\CCCC(=O)O [PGA2] | no significant different in vulnerability | negative impact on the growth |
